In ChEMBL document CHEMBL1909046, “DrugMatrix in vitro pharmacology data”:

Experiments:
[1] = molecular target: T1, Muscarinic acetylcholine receptor M2 (Homo sapiens, UniProt P08172); format: cell membranes, CHO-K1, Membrane; details: cho-k1; also: in other assays of this panel Not Active means under 50% inhibition at 10 µM
T1 sequence (P08172 whole entry): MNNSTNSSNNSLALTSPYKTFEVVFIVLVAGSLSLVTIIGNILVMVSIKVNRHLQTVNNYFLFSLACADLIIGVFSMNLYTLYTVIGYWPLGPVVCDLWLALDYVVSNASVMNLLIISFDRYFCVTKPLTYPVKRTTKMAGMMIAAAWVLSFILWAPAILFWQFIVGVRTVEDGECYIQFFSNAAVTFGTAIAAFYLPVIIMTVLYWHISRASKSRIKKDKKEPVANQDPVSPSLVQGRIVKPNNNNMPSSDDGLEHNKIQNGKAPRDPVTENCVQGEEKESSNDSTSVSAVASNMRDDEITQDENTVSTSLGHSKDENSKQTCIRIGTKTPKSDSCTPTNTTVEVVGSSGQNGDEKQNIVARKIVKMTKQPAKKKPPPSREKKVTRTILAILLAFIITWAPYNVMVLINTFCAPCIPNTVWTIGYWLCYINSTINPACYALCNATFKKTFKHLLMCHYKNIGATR

[2] = DRUGMATRIX: Imidazoline I2, Central radioligand binding (ligand: [3H] Idazoxan); format: cell membranes, Rattus norvegicus, Wistar, Cerebral cortex, Membrane; details: Not Active = under 50% inhibition at 10 µM
[3] = molecular target: 5-hydroxytryptamine receptor 6 (Homo sapiens, UniProt P50406); format: cell membranes, HeLa, Membrane; also: in other assays of this panel Not Active means under 50% inhibition at 10 µM
5-hydroxytryptamine receptor 6, sequence (P50406 whole entry): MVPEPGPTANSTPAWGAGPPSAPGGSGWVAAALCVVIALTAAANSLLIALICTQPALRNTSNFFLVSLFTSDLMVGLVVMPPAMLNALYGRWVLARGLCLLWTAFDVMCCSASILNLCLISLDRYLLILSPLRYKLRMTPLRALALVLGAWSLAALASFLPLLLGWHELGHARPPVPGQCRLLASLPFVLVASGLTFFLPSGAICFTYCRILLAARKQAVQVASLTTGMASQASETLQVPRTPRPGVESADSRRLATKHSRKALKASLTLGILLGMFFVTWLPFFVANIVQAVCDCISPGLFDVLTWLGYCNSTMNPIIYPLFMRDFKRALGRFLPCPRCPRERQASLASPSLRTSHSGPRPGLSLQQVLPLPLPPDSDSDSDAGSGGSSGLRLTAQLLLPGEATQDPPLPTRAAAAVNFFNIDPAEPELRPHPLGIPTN

[4] = molecular target: T2, Alpha-1D adrenergic receptor (Homo sapiens, UniProt P25100); format: cell membranes, HEK293, Membrane; also: in other assays of this panel Not Active means under 50% inhibition at 10 µM
T2 sequence (P25100 whole entry): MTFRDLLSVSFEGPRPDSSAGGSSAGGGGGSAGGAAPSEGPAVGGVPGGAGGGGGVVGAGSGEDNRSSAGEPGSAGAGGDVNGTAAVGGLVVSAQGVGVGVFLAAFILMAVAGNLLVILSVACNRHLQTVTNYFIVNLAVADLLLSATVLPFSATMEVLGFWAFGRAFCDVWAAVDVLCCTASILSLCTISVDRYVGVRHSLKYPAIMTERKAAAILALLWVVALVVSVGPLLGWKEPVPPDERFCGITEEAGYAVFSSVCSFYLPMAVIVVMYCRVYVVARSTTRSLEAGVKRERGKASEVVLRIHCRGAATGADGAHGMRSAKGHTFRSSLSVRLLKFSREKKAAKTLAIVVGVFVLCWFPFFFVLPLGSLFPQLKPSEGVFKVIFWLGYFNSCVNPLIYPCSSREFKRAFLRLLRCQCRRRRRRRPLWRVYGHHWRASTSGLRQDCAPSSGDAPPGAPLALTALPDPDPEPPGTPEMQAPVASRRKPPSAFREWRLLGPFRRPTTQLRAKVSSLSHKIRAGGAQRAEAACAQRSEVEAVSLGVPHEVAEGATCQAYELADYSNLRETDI

[5] = molecular target: Cytochrome P450 2C19 (Homo sapiens, UniProt P33261); details: bti-tn-5b1-4; also: in other assays of this panel Not Active means under 50% inhibition at 10 µM
Cytochrome P450 2C19, sequence (P33261 whole entry): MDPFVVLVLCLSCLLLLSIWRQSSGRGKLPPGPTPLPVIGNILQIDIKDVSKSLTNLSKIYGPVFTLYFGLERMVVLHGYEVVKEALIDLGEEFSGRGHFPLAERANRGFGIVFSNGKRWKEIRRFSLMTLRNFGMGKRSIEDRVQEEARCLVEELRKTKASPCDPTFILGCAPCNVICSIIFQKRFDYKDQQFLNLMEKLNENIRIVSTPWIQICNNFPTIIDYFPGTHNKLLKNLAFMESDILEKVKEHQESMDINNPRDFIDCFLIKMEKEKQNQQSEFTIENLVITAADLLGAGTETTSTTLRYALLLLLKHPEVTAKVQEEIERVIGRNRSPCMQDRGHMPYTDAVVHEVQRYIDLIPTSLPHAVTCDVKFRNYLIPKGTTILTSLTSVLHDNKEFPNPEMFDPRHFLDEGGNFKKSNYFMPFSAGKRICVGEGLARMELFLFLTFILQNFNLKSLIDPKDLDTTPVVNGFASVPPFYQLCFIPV

Row | SMILES | IC50 [1] | IC50 [2] | Ki [2] | IC50 ([3]; hela) | IC50 ([4]; hek293) | IC50 [5] | Ki [5] | Ki [4] [nM] | IC50 ([4]; read-out: IC50) [nM] | Ki ([2]; read-out: Ki) [nM] | IC50 ([3]; read-out: IC50) [nM] | Ki ([3]; read-out: Ki) [nM]
1 | O=C(c1ccccc1C(F)(F)F)N1CCC(Cc2ccccc2)CC1 | Not Active | Not Active | Not Active | Not Active | Not Active | – | – | – | – | – | – | –
2 | O=C/C=C/c1ccccc1 | Not Active | Not Active | Not Active | Not Active | Not Active | Not Active | Not Active | – | – | – | – | –
3 | Nc1ccc2c3c(cccc13)C(=O)NC2=O | Not Active | Not Active | Not Active | Not Active | Not Active | Not Active | Not Active | – | – | – | – | –
4 | COc1ccc(C(=O)N2CCCC2=O)cc1 | Not Active | Not Active | Not Active | Not Active | Not Active | – | – | – | – | – | – | –
5 | O=c1cnn([C@@H]2O[C@H](CO)[C@@H](O)[C@H]2O)c(=O)[nH]1 [6-AZAURIDINE] | Not Active | Not Active | Not Active | Not Active | Not Active | Not Active | Not Active | – | – | – | – | –
6 | CC[C@H](C)[C@H]1O[C@]2(C=C[C@@H]1C)C[C@@H]1C[C@@H](C/C=C(\C)[C@@H](O[C@H]3C[C@H](OC)[C@@H](O[C@H]4C[C@H](OC)[C@@H](O)[C@H](C)O4)[C@H](C)O3)[C@@H](C)/C=C/C=C3\CO[C@@H]4[C@H](O)C(C)=C[C@@H](C(=O)O1)[C@]34O)O2.CO[C@H]1C[C@H](O[C@H]2[C@H](C)O[C@@H](O[C@@H]3/C(C)=C/C[C@@H]4C[C@@H](C[C@]5(C=C[C@H](C)[C@@H](C(C)C)O5)O4)OC(=O)[C@@H]4C=C(C)[C@@H](O)[C@H]5OC/C(=C\C=C\[C@@H]3C)[C@]54O)C[C@@H]2OC)O[C@@H](C)[C@@H]1O [ABAMECTIN] | Not Active | Not Active | Not Active | Not Active | Not Active | Not Active | Not Active | – | – | – | – | –
7 | NCCCC(O)(P(=O)(O)O)P(=O)(O)O [ALENDRONIC ACID] | Not Active | Not Active | Not Active | Not Active | Not Active | – | – | – | – | – | – | –
8 | Cc1nnc2n1-c1ccc(Cl)cc1C(c1ccccc1)=NC2 [ALPRAZOLAM] | Not Active | Not Active | Not Active | Not Active | Not Active | Not Active | Not Active | – | – | – | – | –
9 | Cn1c(=O)c2[nH]cnc2n(C)c1=O.Cn1c(=O)c2[nH]cnc2n(C)c1=O.NCCN [AMINOPHYLLINE] | Not Active | Not Active | Not Active | Not Active | Not Active | Not Active | Not Active | – | – | – | – | –
10 | CCC1(CCC(C)C)C(=O)NC(=O)NC1=O [AMOBARBITAL] | Not Active | Not Active | Not Active | Not Active | Not Active | Not Active | Not Active | – | – | – | – | –
11 | CC1(C)S[C@@H]2[C@H](NC(=O)[C@H](N)c3ccccc3)C(=O)N2[C@H]1C(=O)O [AMPICILLIN] | Not Active | Not Active | Not Active | Not Active | Not Active | Not Active | Not Active | – | – | – | – | –
12 | COc1ccc(C2C(=O)c3ccccc3C2=O)cc1 [ANISINDIONE] | Not Active | Not Active | Not Active | Not Active | Not Active | Not Active | Not Active | – | – | – | – | –
13 | O=C1O[C@H]([C@@H](O)CO)C(O)=C1O [ASCORBIC ACID] | Not Active | Not Active | Not Active | Not Active | Not Active | Not Active | Not Active | – | – | – | – | –
14 | CN1[C@@H]2CC[C@H]1C[C@@H](OC(=O)C(CO)c1ccccc1)C2 (stereo partly specified) [ATROPINE] | – | Not Active | Not Active | Not Active | – | – | – | 666 | 1350 | – | – | –
15 | Nc1ccn([C@@H]2O[C@H](CO)[C@@H](O)[C@@H]2O)c(=O)n1 [CYTARABINE] | Not Active | Not Active | Not Active | Not Active | Not Active | – | – | – | – | – | – | –
16 | C[C@@H]1C[C@H]2[C@@H]3CCC4=CC(=O)C=C[C@]4(C)[C@@]3(F)[C@@H](O)C[C@]2(C)[C@@]1(O)C(=O)CO [DEXAMETHASONE] | Not Active | Not Active | Not Active | Not Active | Not Active | – | – | – | – | – | – | –

Row | SMILES | IC50 [1] | IC50 [2] | Ki [2] | IC50 ([3]; hela) | IC50 ([4]; hek293) | IC50 [5] | Ki [5] | Ki [4] [nM] | IC50 ([4]; read-out: IC50) [nM] | Ki ([2]; read-out: Ki) [nM] | IC50 ([3]; read-out: IC50) [nM] | Ki ([3]; read-out: Ki) [nM]
17 | CC[C@H]1CN2CCc3cc(OC)c(OC)cc3[C@@H]2C[C@@H]1C[C@H]1NCCc2cc(OC)c(OC)cc21 [EMETINE] | Not Active | Not Active | Not Active | Not Active | Not Active | – | – | – | – | – | – | –
18 | COc1cc([C@@H]2c3cc4c(cc3[C@@H](O[C@@H]3O[C@@H]5CO[C@@H](C)O[C@H]5[C@H](O)[C@H]3O)[C@H]3COC(=O)[C@H]23)OCO4)cc(OC)c1O [ETOPOSIDE] | Not Active | Not Active | Not Active | Not Active | Not Active | – | – | – | – | – | – | –
19 | CC(C)(C)NC(=O)[C@H]1CC[C@H]2[C@@H]3CC[C@H]4NC(=O)C=C[C@]4(C)[C@H]3CC[C@]12C [FINASTERIDE] | Not Active | Not Active | Not Active | Not Active | Not Active | – | – | – | – | – | – | –
20 | COc1ccc2c3c1O[C@H]1C[C@@H](O)C=C[C@@]31CCN(C)C2 [GALANTAMINE] | Not Active | Not Active | Not Active | Not Active | Not Active | – | – | – | – | – | – | –
21 | CC(C)=CCC/C(C)=C/CO [GERANIOL] | Not Active | Not Active | Not Active | Not Active | Not Active | – | – | – | – | – | – | –
22 | Oc1c(Cl)cc(Cl)c(Cl)c1Cc1c(O)c(Cl)cc(Cl)c1Cl [HEXACHLOROPHENE] | Not Active | Not Active | Not Active | Not Active | Not Active | – | – | – | – | – | – | –
23 | CC(=O)[C@@]1(O)CC[C@H]2[C@@H]3CCC4=CC(=O)CC[C@]4(C)[C@H]3CC[C@@]21C [HYDROXYPROGESTERONE] | Not Active | Not Active | Not Active | Not Active | Not Active | – | – | – | – | – | – | –
24 | COC1=C(OC)C(=O)C(CCCCCCCCCCO)=C(C)C1=O [IDEBENONE] | Not Active | Not Active | Not Active | Not Active | Not Active | – | – | – | – | – | – | –
25 | Cc1c(OCC(F)(F)F)ccnc1C[S+]([O-])c1nc2ccccc2[nH]1 (stereo unspecified) [LANSOPRAZOLE] | Not Active | Not Active | Not Active | Not Active | Not Active | – | – | – | – | – | – | –
26 | COc1ccc2[nH]cc(CCNC(C)=O)c2c1 [MELATONIN] | Not Active | Not Active | Not Active | Not Active | Not Active | – | – | – | – | – | – | –
27 | O=C(N/N=C/c1ccc([N+](=O)[O-])o1)c1cc([N+](=O)[O-])cc([N+](=O)[O-])c1O [NIFURSOL] | Not Active | Not Active | Not Active | Not Active | Not Active | – | – | – | – | – | – | –
28 | CC(=O)O[C@H]1C(=O)[C@@]2(C)[C@H]([C@H](OC(=O)c3ccccc3)[C@]3(O)C[C@H](OC(=O)[C@H](O)[C@@H](NC(=O)c4ccccc4)c4ccccc4)C(C)=C1C3(C)C)[C@]1(OC(C)=O)CO[C@@H]1C[C@@H]2O [PACLITAXEL] | Not Active | Not Active | Not Active | Not Active | Not Active | – | – | – | – | – | – | –
29 | CC(C)NCC(O)COc1cccc2[nH]ccc12 (stereo unspecified) [PINDOLOL] | Not Active | Not Active | Not Active | Not Active | Not Active | – | – | – | – | – | – | –
30 | COc1cc2nc(N3CCN(C(=O)c4ccco4)CC3)nc(N)c2cc1OC [PRAZOSIN] | Not Active | – | – | Not Active | – | Not Active | Not Active | – | – | 633 | – | –
31 | CCCNCC(O)COc1ccccc1C(=O)CCc1ccccc1 (stereo unspecified) [PROPAFENONE] | Not Active | Not Active | Not Active | – | Not Active | – | – | – | – | – | 1860 | 865
32 | CC(C)c1cccc(C(C)C)c1O [PROPOFOL] | Not Active | Not Active | Not Active | Not Active | Not Active | – | – | – | – | – | – | –
